Reference: publication PMC4028696, “Development of a screen to identify selective small molecules active against patient-derived metastatic and chemoresistant breast cancer cells” (Breast Cancer Research : BCR, 2013)

Tests used:
[1] = Dose response assay, ATPlite viability, four days; assay type: cell-based; conditions: human, MCF-10A cells, 200 μM C-6, read-out: cells still viable
Protocol: (§1) Cells were seeded in white 96-well plates (Costar, Tewksbury, MA, USA) in 100 μL of their respective media at varying densities to achieve 80% to 90% confluency after five days in culture. The compounds dissolved in DMSO were diluted in their corresponding media containing 2% FBS and an EP Motion 5075 (Eppendorf North America, Hauppauge, NY, USA) liquid handler was utilized to perform a serial dilution. […] After the cells were cultured for 24 hours, the media were aspirated and the cells were treated with the compounds and vehicle controls in triplicate. After four days of treatment, viability was determined utilizing the ATPlite 1step assay system (Perkin Elmer, Waltham, MA, USA) according to the manufacturer's instructions. Luminescence measurements were acquired utilizing a Perkin Elmer 2104 EnVision plate reader. Raw luminescence values were normalized to the DMSO vehicle control wells.

LC3A/B-II = assay: Western blot for LC3A/B-II (autophagy); assay type: cell-based, human; conditions: T47D cells, 30 μM, 48 hours
Protocol: (§2) Cells were lysed in cold radioimmunoprecipitation assay buffer (50 mM Tris HCl, 150 mM NaCl, 0.1% sodium dodecyl sulfate (SDS), 0.5% sodium deoxycholate, 1% Triton X-100, pH = 8.0) supplemented with protease inhibitor cocktail (Sigma), phosphatase inhibitor cocktail 2 (Sigma) and 1 mM dithiothreitol (DTT) (Sigma). The lysate was sonicated for 30 seconds using a 450 Sonifier (Branson Ultrasonics, Danbury, CT, USA) and was centrifuged at 14,000 RPM for five minutes at 4°C. The protein concentration was determined using the BCA protein assay kit (Peirce, Rockford, IL, USA) and the samples were boiled for five minutes with 4× SDS Laemmli buffer. Equal amounts of protein were resolved on SDS polyacrylamide gels and transferred to an Immobilon-FL PVDF membrane (EMD Millipore). Blots were blocked in Odyssey Blocking Buffer (LI-COR, Lincoln, NE, USA) for one hour at room temperature, stained with primary antibodies overnight at 4°C, washed, and stained with IR800CW or IR680 anti-mouse or rabbit secondary antibodies (LI-COR) for one hour at room temperature. Blots were imaged with the Odyssey Infrared Imaging System (LI-COR).

MCF-7 cells = assay: Dose response assay, ATPlite viability, four days; assay type: cell-based, human; conditions: Homo sapiens, MCF7, 96 h; MCF-7, four days of treatment, ATP viability
Protocol: as §1

MDA-MB-231 cells = assay: Dose response assay, ATPlite viability, four days; assay type: cell-based, human; conditions: Homo sapiens, 96 h; MDA-MB-231, four days of treatment, ATP viability
Protocol: as §1

PE904557a cells = assay: Dose response assay, ATPlite viability, four days; assay type: cell-based, human; conditions: Homo sapiens, 96 h, four days of treatment, ATP viability, N/A = data could not be fitted
Protocol: as §1

PE1007070 cells = assay: Dose response assay, ATPlite viability, four days; assay type: cell-based, human; conditions: Homo sapiens, 96 h, PE1007070, four days of treatment, ATP viability
Protocol: as §1

T47D cells = assay: Dose response assay, ATPlite viability, four days; assay type: cell-based, human; conditions: Homo sapiens, 96 h, four days of treatment, ATP viability
Protocol: as §1

PE1008032 cells = assay: Dose response assay, ATPlite viability, four days; assay type: cell-based, human; conditions: Homo sapiens, 96 h, PE1008032, four days of treatment, ATP viability
Protocol: as §1

hTERT-HMEC cells = assay: Dose response assay, ATPlite viability, four days; assay type: cell-based, human
Protocol: as §1

[2] = test system: cleaved caspase-3, caspase-8, cleaved caspase-9, and PARP; assay: Western blot for caspase and PARP cleavage; assay type: cell-based, human; conditions: 30 μM, 48 hours, cell lines, hTERT-HMEC and PE cells
Protocol: as §2, with “(LI-COR). […]” for “(LI-COR).”

[3] = test system: PE904557a, PE900642a and PE1100025 cells; assay: Live/dead assay, three-dimensional Matrigel culture; assay type: cell-based, human; conditions: 30 or 60 μM, five days
Protocol: For the three dimensional culture experiments, PE904557a, PE900642a and PE11000025 cells were seeded in a 24-well ultra low adhesion plate (Costar) at approximately 2 × 10^6 cells/mL in mammary epithelial cell growth medium (MEGM) complete media (Lonza, Basel Switzerland) and were cultured overnight. The resulting aggregates were separated from single cells by differential centrifugation. Next, 20 μL of growth factor reduced Matrigel (BD Biosciences) was added to each well of a black walled clear bottom 24-well plate (Greiner Bio-one) and was allowed to solidify to form a base layer. The aggregates were then suspended in Matrigel on ice and approximately 300 aggregates in 40 μL were added to each well. After the Matrigel solidified, modified M87 media was added to each well and the cells were cultured overnight. The media were subsequently aspirated and the cells were treated with 30 or 60 μM C-6 or the corresponding 0.06% (v/v) DMSO vehicle control. After culturing for five days, the viability and cytotoxicity were determined utilizing the Live/dead assay (Life Technologies) in the same manner as described above. Multiple Z-planes of the organoids were subsequently imaged utilizing an IX81 microscope (Olympus) running Slide Book 5.0 software (Intelligent Imaging Innovations).

COc1cc(OC)cc(C(C)c2ccc(NC(=O)OC(C)(C)C)cc2)c1 (centres unmarked) [C-6]
viability at 4 days, 200 μM [1]: > 70% | LC3A/B-II levels (LC3A/B-II): small increase | EC50 (MCF-7 cells): 11 µM | EC50 (MDA-MB-231 cells): 10.5 µM | EC50 (PE904557a cells): 75.7 µM | EC50 (PE1007070 cells): 24.4 µM | EC50 (T47D cells): 8.29 µM | EC50 (PE1008032 cells): 33.3 µM | effect on viability (hTERT-HMEC cells): did not significantly reduce the viability | cleavage of caspase-3, -8, -9, or PARP [2]: did not induce cleavage | cell death in three-dimensional culture [3]: able to induce cell death
